In US6864271B2, “Synergistic combinations including N-acylated 4-hydroxyphenylamine derivatives” (The Foundation for the LSU Health Sciences Center, priority 2002, dated 2005):

Tests used:
C57/b16 mice [1] = conditions: prior work (Paul et al., 1998; Bazan patents); cited from earlier work
[2] = background statement; cited from earlier work
C57/b16 mice [3] = assay: hepatotoxicity study, transaminase activity after oral dosing; conditions: 24 hours after oral dose in corn oil; acetaminophen/SCP-1 3.7 mmole/kg, codeine 50 mg/kg; FIG. 3
mice [4] = assay: abdominal stretch assay (i.p. acetic acid); type: in vivo, mouse; conditions: oral, FIG. 1; for number of abdominal stretches (percentage of control): 55 min before i.p. 10 ml/kg 0.4% acetic acid, counted 10 min
mice [5] = conditions: cited from earlier work
[6] = background statement; cited from earlier work; remark: listed apart in the source
mice [7] = conditions: background statement; cited from earlier work

For `O=C(CN1C(=O)c2ccccc2S1(=O)=O)Nc1ccc(O)cc1` [SCP-1], the hepatotoxicity (C57/b16 mice [1]) is given as “lower in hepatotoxicity”, the “potency compared with acetaminophen, Freund's adjuvant-induced inflammation” value [2] is given as “more potent” and the “GPT activity in serum” value (C57/b16 mice [3]) is given as “neither SCP-1 nor codeine, nor the combination of both, produced any significant increase”. For the same molecule, the “analgesic potency compared with acetaminophen” value (mice [4]; abdominal stretch assay, mice) was “significantly greater than acetaminophen”, the “number of abdominal stretches (percentage of control)” value (“number … (percentage of control)” for short) (mice [4]) was “dose-dependent decrease” and the “toxicity compared with acetaminophen” value (mice [5]; Paul et al., 1998) was “lower in toxicity”. The “potency compared with acetaminophen, formalin” value [6] was “more potent” and the “potency compared with acetaminophen, abdominal stretch” value (mice [7]) was “more potent”.
For `CC(=O)Nc1ccc(O)cc1` [acetaminophen, reference compound], the “number … (percentage of control)” value (mice [4]) is given as “dose-dependent decrease” and the LD50 (mice [5]; mice) is given as 3.7 mmol/kg.
For `COc1ccc2c3c1O[C@H]1[C@@H](O)C=C[C@H]4[C@@H](C2)N(C)CC[C@@]341` [codeine, reference compound], the “GPT activity in serum” value (C57/b16 mice [3]) was “neither SCP-1 nor codeine, nor the combination of both, produced any significant increase” and the “number … (percentage of control)” value (mice [4]) was “dose-dependent decrease”.
